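Five compound concentrations were applied to cells in 96-well plates for 48 hours; endpoints were derived by simple linear interpolation of the resulting dose-response curve. GI50 = concentration required for 50% inhibition of growth. TGI denotes the concentration required for complete inhibition of growth.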 Some results are limits rather than exact numbers.

Some test systems named below: A549 NSCLC; IGROV1 ovarian; LOX IMVI melanoma; OVCAR-3 ovarian; RPMI-8226 leukemia; RXF 393 renal; UACC-62 melanoma.
Common to all, as to experiment: NCI-60 cell line screen, 48 h

For `C=C[C@]1(C)CCC2=C(CCC3C2(C)CCC[C@]3(C)CO)C1` (stereo partly specified), the TGI is over 100 µM in the assay with A549 NSCLC; over 100 µM in the assay on IGROV1 ovarian; 68 µM in the assay on LOX IMVI melanoma; over 100 µM in the assay with OVCAR-3 ovarian; over 100 µM in the assay on RPMI-8226 leukemia; 84.4 µM in the assay on RXF 393 renal. Besides, the TGI in the assay on UACC-62 melanoma is over 100 µM.
Turning to `CN=C1Nc2ccc(Cl)cc2C(c2ccccc2)=NN1C`, the TGI is over 100 µM in the assay with A549 NSCLC; over 100 µM with IGROV1 ovarian; over 100 µM in the assay with LOX IMVI melanoma; over 100 µM in the assay on OVCAR-3 ovarian; over 100 µM in the assay on RPMI-8226 leukemia; 81.1 µM in the assay on RXF 393 renal. In addition, the TGI in the assay on UACC-62 melanoma was over 100 µM.
For `CCC1=C(C)/C(=C/c2[nH]c(CBr)c(CC)c2C)N=C1CBr`, the TGI in the assay on A549 NSCLC is 36.7 µM; in the assay on IGROV1 ovarian, 38.1 µM; with LOX IMVI melanoma, over 100 µM; with OVCAR-3 ovarian, 30.1 µM; with RPMI-8226 leukemia, 36.7 µM; in the assay with RXF 393 renal, 54 µM. Besides, the TGI with UACC-62 melanoma was 24.6 µM.
With `N.N.N.N.N.N.[I-].[Os]`, the GI50 with A549 NSCLC, in the assay on IGROV1 ovarian, with LOX IMVI melanoma, with OVCAR-3 ovarian, with RPMI-8226 leukemia and in the assay on RXF 393 renal was over 100 µM throughout. Besides, the GI50 in the assay with UACC-62 melanoma is over 100 µM. Besides, the TGI in the assay with A549 NSCLC, in the assay with IGROV1 ovarian, with LOX IMVI melanoma, in the assay on OVCAR-3 ovarian, in the assay on RPMI-8226 leukemia and with RXF 393 renal was over 100 µM throughout. Further, the TGI in the assay with UACC-62 melanoma was over 100 µM.
In the case of `CC1(C)OC(C(N)=O)=C(C(N)=O)O1`, the TGI in the assay on A549 NSCLC, in the assay with IGROV1 ovarian, in the assay with LOX IMVI melanoma, with OVCAR-3 ovarian, in the assay with RXF 393 renal and in the assay with UACC-62 melanoma was over 100 µM each time.
`COC(=O)C1(C(=O)OC)CC2c3c(c4ccccc4n3C)CC(C1=O)N2Cc1ccccc1` (stereo unspecified): the TGI in the assay on A549 NSCLC, in the assay with IGROV1 ovarian, with LOX IMVI melanoma, in the assay with OVCAR-3 ovarian, in the assay with RPMI-8226 leukemia and in the assay on RXF 393 renal was over 100 µM in each case. The molecule further had a TGI in the assay on UACC-62 melanoma of over 100 µM.
Turning to `C/C=C/C=N/N(C(=O)c1cc([N+](=O)[O-])cc([N+](=O)[O-])c1)C1=NC(c2ccccc2)C(c2ccccc2)=NN1` (stereo unspecified), the TGI in the assay on A549 NSCLC is over 100 µM; in the assay on IGROV1 ovarian, over 100 µM; in the assay on LOX IMVI melanoma, over 100 µM; in the assay with OVCAR-3 ovarian it was 72 µM; with RPMI-8226 leukemia, over 100 µM; in the assay on RXF 393 renal it was over 100 µM. Moreover, the TGI in the assay with UACC-62 melanoma is over 100 µM.
With `CC(=O)OCc1cc(OC(C)=O)cnc1COC(C)=O`, the TGI in the assay with A549 NSCLC, in the assay with IGROV1 ovarian, in the assay with LOX IMVI melanoma, in the assay on OVCAR-3 ovarian, in the assay on RXF 393 renal and in the assay on UACC-62 melanoma was over 100 µM throughout.
As for `Cc1ccccc1NC(=O)C(=O)C(c1cnc2ccc([N+](=O)[O-])cc2n1)[N+](=O)[O-]` (stereo unspecified), the TGI in the assay with A549 NSCLC, with IGROV1 ovarian, in the assay with LOX IMVI melanoma, in the assay with RPMI-8226 leukemia, with RXF 393 renal and in the assay on UACC-62 melanoma was over 100 µM throughout.
Turning to `C#CCOCn1cnc2c(=S)nc[nH]c21`, the TGI in the assay on A549 NSCLC, in the assay with IGROV1 ovarian, with LOX IMVI melanoma, in the assay on OVCAR-3 ovarian, with RPMI-8226 leukemia and in the assay on RXF 393 renal was over 100 µM throughout. Besides, the TGI with UACC-62 melanoma was over 100 µM.
With `Nc1ncnc(NC2C=C(CO)C(O)C2O)c1[N+](=O)[O-]` (stereo unspecified), the TGI in the assay with A549 NSCLC, with IGROV1 ovarian, in the assay on LOX IMVI melanoma, in the assay on OVCAR-3 ovarian, in the assay on RPMI-8226 leukemia and in the assay on RXF 393 renal was over 100 µM in each case. In addition, the TGI with UACC-62 melanoma was over 100 µM.
As to `N=C1N(c2ccccc2)C(=O)C23CCCC2C13N1CCOCC1` (stereo unspecified), the TGI in the assay on A549 NSCLC, with IGROV1 ovarian, with OVCAR-3 ovarian, in the assay on RPMI-8226 leukemia, in the assay on RXF 393 renal and with UACC-62 melanoma was over 100 µM throughout.
Turning to `COC(=O)C1=CN=C(C(=O)OC)NN1`, the TGI in the assay on A549 NSCLC, in the assay with IGROV1 ovarian, with OVCAR-3 ovarian, with RPMI-8226 leukemia, in the assay with RXF 393 renal and in the assay on UACC-62 melanoma was over 100 µM throughout.
Regarding `COC(=O)C(C(=O)C(=O)Nc1ccccc1C(C)=O)c1nc2ccc(Cl)cc2[nH]c1=O` (stereo unspecified), the TGI in the assay with A549 NSCLC, with IGROV1 ovarian, in the assay on LOX IMVI melanoma, in the assay with OVCAR-3 ovarian, in the assay with RPMI-8226 leukemia and in the assay on RXF 393 renal was over 100 µM each time. Also, the TGI in the assay on UACC-62 melanoma was over 100 µM.
`O=C(O)c1ccc(O)c(N=Nc2cc(S(=O)(=O)O)c3ccccc3c2O)c1`: the TGI in the assay on A549 NSCLC, in the assay on IGROV1 ovarian, in the assay with LOX IMVI melanoma, in the assay on OVCAR-3 ovarian, with RPMI-8226 leukemia and in the assay on RXF 393 renal was over 100 µM in each case.
Take `COc1ccc(CNC2=C(NC(C)=O)C(=O)c3ccccc3C2=O)cc1`: the TGI is over 50 µM with A549 NSCLC; over 50 µM with IGROV1 ovarian; 18.7 µM with LOX IMVI melanoma; 20.8 µM in the assay with OVCAR-3 ovarian; 12.8 µM in the assay on RXF 393 renal; 33.5 µM in the assay with UACC-62 melanoma.
On to `ClC1CCC2OOC1O2` (stereo unspecified), for which the TGI in the assay with A549 NSCLC, in the assay on IGROV1 ovarian, with LOX IMVI melanoma, in the assay with OVCAR-3 ovarian, in the assay with RPMI-8226 leukemia and in the assay with RXF 393 renal was over 100 µM each time. Besides, the TGI in the assay with UACC-62 melanoma was over 100 µM.
Consider `COC1C=CC(C(=O)[N+]2=Cc3[nH]c4ccccc4c3CC2)O1` (stereo unspecified), for which the TGI in the assay with A549 NSCLC, in the assay on IGROV1 ovarian, in the assay on LOX IMVI melanoma, in the assay on OVCAR-3 ovarian, in the assay on RPMI-8226 leukemia and in the assay on RXF 393 renal was over 100 µM in each case. In the assay with UACC-62 melanoma, this molecule registered a TGI of over 100 µM.

The values are drawn from PubChem BioAssay (NCI).
